Assay results: patent publication EP0540859B1, “Anthracycline prodrugs” (Bristol-Myers Squibb Company, priority 1987, dated 1989)
pIC50: −log10 of the molar value.

Experiments:
Daudi cells = assay: 3H-thymidine assay on Daudi cells, PVA conjugates with APO; type: cell-based; settings: Figure 25
Protocol: The ^3H-thymidine assay was performed essentially as described in the examples above with slight modifications due to the fact that the Daudi cells are non-adherent. Thus, approximately 250,000 Daudi cells in IMDM were plated into each well of a 96-well microtiter plate and the antibody-enzyme conjugate added. The reaction mixture was incubated at 4°C for 30 min. Unbound antibody-enzyme conjugate was removed by centrifuging at 500 x g for 5 min and removing the supernatant. The cells were resuspended in IMDM and the washing procedure was repeated three times to remove all unbound conjugate. APO in IMDM was then added for 2 h and washed once as described above. The remainder of the assay was performed as described in the examples above.

H2981 tumor cells = assay: 3H-thymidine uptake assay on H2981 cells, PVA conjugates with APO; type: cell-based; settings: Homo sapiens; H2981 cells untreated with any conjugate
Protocol: The in vitro cytotoxic effect of the antibody-PVA/ adriamycin prodrug combination of the invention toward H2981 tumor cells was measured using the ^3H-thymidine uptake assay described in Examples 1 and 2 above. Briefly, the H2981 tumor cells were plated into 96-well microtiter plates in IMDM (10,000 cells/well) and were allowed to attached for 18 h at 37°C. The antibody-PVA conjugates, L6-PVA or 1F5-PVA, were then added at a concentration of 10 µg/ml of antibody and the plates were incubated for 30 min at 4°C. The wells were then washed four times with IMDM and APO was added at varying concentrations in IMDM. After two h, the wells were again washed, IMDM was added and the cells were left for 18 h at 37°C. At that point, ^3H-thymidine was added (1 µCi per well) and after 6 h, the plates were frozen at -70°C to detach the cells. After thawing, the cells were harvested onto glass fiber filters. The incorporation of ^3H-thymidine was measured in a Beckman 3801 scintillation counter and compared to cells treated with APO or adriamycin (ADM) alone.

COc1cccc2c1C(=O)c1c(O)c3c(c(O)c1C2=O)C[C@@](O)(C(=O)CO)C[C@@H]3O[C@H]1C[C@H](N)[C@H](O)[C@H](C)O1 [adriamycin, reference compound]
cytotoxicity on Daudi cells (Daudi cells): significantly more toxic than APO
pIC50 (H2981 tumor cells): 7.42
